Data: paper PMC6137088, “The Role of Outer Membrane Proteins and Lipopolysaccharides for the Sensitivity of Escherichia coli to Antimicrobial Peptides” (Frontiers in Microbiology, 2018)
Where no end group is shown, it is not given here.

Tests used:
E. coli ATCC25922 ΔwaaG = assay type: cell-based, Escherichia coli; conditions: Table 6, triplicates
From the text: (§1) The E. coli strains 470, F632, F653 and F2513 were kindly provided by Prof. H. Brade and Prof. S. Muller-Loennies, Research Center Borstel, Leipniz-Center for Medicine and Biosciences, Germany. E. coli BW25113 (CGSC#:7636), a derivative of F^−, λ^− E. coli K12 strain BD792 is the wild-type strain which was used in the generation of the KEIO collection and ordered from the Coli Genetic Stock Centre (CGSC, Yale University). E. coli JW3596, E. coli JW3024, E. coli JW3595, E. coli JW3606, E. coli JW0212, E. coli JW1667, E. coli JW0554, E. coli JW3605 and E. coli JW3600 are isogenic mutants of waaC, waaE, waaF, waaG, gmhA (lpcA), lpp, ompT, waaP, or waaY derived from the parental strain E. coli BW25113 and were ordered from the KEIO collection (Baba et al., [2006]). E. coli ATCC25922 is a clinical isolate, serotype O6, often used as control strain in antimicrobial susceptibility testing was ordered from the ATCC strain collection. All strains were grown in Mueller-Hinton-II medium and incubation took place aerobically at 37°C for 18–20 h.
(§2) The minimum inhibitory concentrations (MICs) of the AMPs were measured in 96-well microtiter plates according the Clinical and Laboratory Standards Institute [CLSI, formerly National Committee for Clinical Laboratory Standards (NCCLS)] (Wikler et al., [2009]). Liquid Mueller-Hinton-II medium containing increasing concentrations of AMPs is inoculated with a defined number of cells (~10^5 CFUs/ml) in 96-well microtiter plates (polypropylene). Each microtiter plate includes a positive growth control and a negative control (sterile control). After incubation, the minimal inhibitory concentration (MIC) is determined by the lowest concentration showing no visible growth. All plates were incubated for 16–20 h.

E. coli ATCC25922 = assay type: cell-based, Escherichia coli; conditions: triplicates; for Antimicrobial activity: MIC: Table 6, E. coli ATCC25922 wild-type
From the text: as §1, §2

E. coli ATCC25922 ΔwaaC = assay type: cell-based, Escherichia coli; conditions: Table 6, triplicates
From the text: as §1, §2

E. coli ATCC25922 ΔwaaE = assay type: cell-based, Escherichia coli; conditions: Table 6, triplicates
From the text: as §1, §2

E. coli ATCC25922 ΔwaaF = assay type: cell-based, Escherichia coli; conditions: Table 6, triplicates
From the text: as §1, §2

[1] = system: E. coli ATCC25922 LPS mutants (ΔwaaC, ΔwaaE, ΔwaaF, ΔwaaG); assay type: cell-based, Escherichia coli; conditions: E. coli ATCC25922 background (text prints ATCC29522); summary of Table 6
From the text: as §1, with “[…],” for “E. coli JW3605 and E. coli JW3600 are isogenic mutants of waaC, waaE, waaF, waaG,”, “or waaY derived from the parental strain E. coli BW25113 and were ordered from the” left out
as §2

S. typhimurium LT2 = assay: MIC testing (CLSI broth microdilution); assay type: cell-based; conditions: Table 6, triplicates
Protocol: as §2

Y. ruckeri 392/2003 = assay: MIC testing (CLSI broth microdilution); assay type: cell-based; conditions: Table 6, triplicates
Protocol: as §2

[2] = system: E. coli BW25113 waaF::kan; assay type: cell-based, Escherichia coli; conditions: Table 3; BW25113 waaF::kan; Mueller-Hinton-II, 16–20 h; duplicates (*) or triplicates
From the text: as §1, §2

E. coli F2513 (R4) = assay type: cell-based, Escherichia coli; conditions: Table 4; E. coli F2513 (R4 prototype, rough LPS); triplicates
From the text: as §1, §2

[3] = system: E. coli BW25113 waaG::kan; assay type: cell-based, Escherichia coli; conditions: Table 3; BW25113 waaG::kan; Mueller-Hinton-II, 16–20 h; duplicates (*) or triplicates
From the text: as §1, §2

E. coli F632 (R2) = assay type: cell-based, Escherichia coli; conditions: Table 4; E. coli F632 (R2 prototype, rough LPS); triplicates
From the text: as §1, §2

[4] = system: E. coli BW25113 waaC::kan; assay type: cell-based, Escherichia coli; conditions: Table 3; BW25113 waaC::kan; Mueller-Hinton-II, 16–20 h; duplicates (*) or triplicates
From the text: as §1, §2

E. coli F653 (R3) = assay type: cell-based, Escherichia coli; conditions: Table 4; E. coli F653 (R3 prototype, rough LPS); triplicates
From the text: as §1, §2

E. coli F470 (R1) = assay type: cell-based, Escherichia coli; conditions: Table 4; E. coli F470 (R1 prototype, rough LPS); triplicates
From the text: as §1, §2

[5] = system: E. coli BW25113 gmhA::kan; assay type: cell-based, Escherichia coli; conditions: Table 3; BW25113 gmhA::kan; Mueller-Hinton-II, 16–20 h; duplicates (*) or triplicates
From the text: as §1, §2

[6] = system: E. coli BW25113 waaE::kan; assay type: cell-based, Escherichia coli; conditions: Table 3; BW25113 waaE::kan; Mueller-Hinton-II, 16–20 h; duplicates (*) or triplicates
From the text: as §1, §2

[7] = system: E. coli BW25113 ompT::kan; assay type: cell-based, Escherichia coli; conditions: Table 3; BW25113 ompT::kan; Mueller-Hinton-II, 16–20 h; duplicates (*) or triplicates
From the text: as §1, §2

E. coli BW25113 = assay type: cell-based, Escherichia coli; conditions: Table 3; E. coli BW25113 wild type; Mueller-Hinton-II, ~10^5 CFUs/ml, 16–20 h; duplicates (*) or triplicates
From the text: as §1, §2

[8] = system: E. coli BW25113 waaP::kan; assay type: cell-based, Escherichia coli; conditions: Table 3; BW25113 waaP::kan; Mueller-Hinton-II, 16–20 h; duplicates (*) or triplicates
From the text: as §1, §2

[9] = system: E. coli BW25113 waaY::kan; assay type: cell-based, Escherichia coli; conditions: Table 3, Mueller-Hinton-II, 16–20 h, duplicates (*) or triplicates
From the text: as §1, §2

Sequence: GLRKRLRKFRNKIKEKKKKIGQKIQGLLPKLAPRTDY [L17K]
- Antimicrobial activity: MIC (E. coli ATCC25922 ΔwaaG): 8 µg/mL
- Antimicrobial activity: MIC (E. coli ATCC25922): ≥64 µg/mL
- Antimicrobial activity: MIC (E. coli ATCC25922 ΔwaaC): 8 µg/mL
- Antimicrobial activity: MIC (E. coli ATCC25922 ΔwaaE): 8 µg/mL
- Antimicrobial activity: MIC (E. coli ATCC25922 ΔwaaF): 8 µg/mL
- MIC / antimicrobial activity in LPS mutants harboring a deletion in waaC, waaE, waaF, or waaG [1]: 4 to 8 µg/mL
- Antimicrobial activity: MIC (S. typhimurium LT2): 16 µg/mL
- Antimicrobial activity: MIC (Y. ruckeri 392/2003): ≥64 µg/mL

Sequence: GLRKRLRKFRNKIKEKLKKIGQKIQGPLPKLAPRTDY [L27P]
- Antimicrobial activity: MIC (E. coli ATCC25922 ΔwaaG): 4 µg/mL
- Antimicrobial activity: MIC (E. coli ATCC25922): ≥64 µg/mL
- Antimicrobial activity: MIC (E. coli ATCC25922 ΔwaaC): 8 µg/mL
- Antimicrobial activity: MIC (E. coli ATCC25922 ΔwaaE): 4 µg/mL
- Antimicrobial activity: MIC (E. coli ATCC25922 ΔwaaF): 4 µg/mL
- MIC / antimicrobial activity in LPS mutants harboring a deletion in waaC, waaE, waaF, or waaG [1]: 4 to 8 µg/mL
- Antimicrobial activity: MIC (S. typhimurium LT2): 8 µg/mL
- Antimicrobial activity: MIC (Y. ruckeri 392/2003): 32 µg/mL

Sequence: GLRKRLRKFRNKIKEKLKKIGQKGQGLLPKLAPRTDY [I24G]
- Antimicrobial activity: MIC (E. coli ATCC25922 ΔwaaG): 8 µg/mL
- Antimicrobial activity: MIC (E. coli ATCC25922): ≥64 µg/mL
- Antimicrobial activity: MIC (E. coli ATCC25922 ΔwaaC): 8 µg/mL
- Antimicrobial activity: MIC (E. coli ATCC25922 ΔwaaE): 8 µg/mL
- Antimicrobial activity: MIC (E. coli ATCC25922 ΔwaaF): 8 µg/mL
- MIC / antimicrobial activity in LPS mutants harboring a deletion in waaC, waaE, waaF, or waaG [1]: 4 to 8 µg/mL
- Antimicrobial activity: MIC (S. typhimurium LT2): 8 to 16 µg/mL
- Antimicrobial activity: MIC (Y. ruckeri 392/2003): 32 µg/mL

Sequence: GLRKRLRKFRNKIKECLKKIGQKIQGLLPKLAPRTDY [K16C]
- Antimicrobial activity: MIC (E. coli ATCC25922 ΔwaaG): 8 µg/mL
- Antimicrobial activity: MIC (E. coli ATCC25922): 8 µg/mL
- Antimicrobial activity: MIC (E. coli ATCC25922 ΔwaaC): 4 µg/mL
- Antimicrobial activity: MIC (E. coli ATCC25922 ΔwaaE): 8 µg/mL
- Antimicrobial activity: MIC (E. coli ATCC25922 ΔwaaF): 4 µg/mL
- Antimicrobial activity: MIC (S. typhimurium LT2): 8 to 16 µg/mL
- Antimicrobial activity: MIC (Y. ruckeri 392/2003): 8 to 16 µg/mL

Sequence: KLRKLFRKLLKLIRKLLR [Cap11-1-18 m^2]
- MIC [2]: 8 µg/mL
- Antimicrobial activity (MIC) (E. coli F2513 (R4)): 8 to 16 µg/mL
- MIC [3]: 8 µg/mL
- Antimicrobial activity (MIC) (E. coli F632 (R2)): 16 to 32 µg/mL
- MIC [4]: 8 µg/mL
- Antimicrobial activity (MIC) (E. coli F653 (R3)): ≥32 µg/mL
- Antimicrobial activity (MIC) (E. coli F470 (R1)): 32 µg/mL
- MIC [5]: 8 ^* μg/ml
- MIC [6]: 8 µg/mL
- MIC [7]: 8 ^* μg/ml
- MIC (E. coli BW25113): 8 to 16 µg/mL

Sequence: GLRKRLRKFRNKIKEKLKKIGQKIQTLLPKLAPRTDY [G26T]
- Antimicrobial activity: MIC (E. coli ATCC25922 ΔwaaG): 4 µg/mL
- Antimicrobial activity: MIC (E. coli ATCC25922): 8 µg/mL
- Antimicrobial activity: MIC (E. coli ATCC25922 ΔwaaC): 4 µg/mL
- Antimicrobial activity: MIC (E. coli ATCC25922 ΔwaaE): 4 µg/mL
- Antimicrobial activity: MIC (E. coli ATCC25922 ΔwaaF): 4 µg/mL
- Antimicrobial activity: MIC (S. typhimurium LT2): 4 to 8 µg/mL
- Antimicrobial activity: MIC (Y. ruckeri 392/2003): 2 to 4 µg/mL

Sequence: SWLSKTAKKLENSAKKRISEGIAIAIQGGPR [Cecropin P1]
- MIC [2]: 4 µg/mL
- MIC [8]: 16 to 32 µg/mL
- Antimicrobial activity (MIC) (E. coli F2513 (R4)): 16 to 32 µg/mL
- Antimicrobial activity (MIC) (E. coli ATCC25922; Table 4, E. coli ATCC25922 (smooth LPS)): 32 µg/mL
- MIC [9]: 32 µg/mL
- MIC [3]: 16 µg/mL
- Antimicrobial activity (MIC) (E. coli F632 (R2)): 32 µg/mL
- MIC [4]: 8 µg/mL
- Antimicrobial activity (MIC) (E. coli F653 (R3)): 32 µg/mL
- Antimicrobial activity (MIC) (E. coli F470 (R1)): 32 µg/mL
- MIC [6]: 8 µg/mL
- MIC [7]: 16 ^* μg/ml
- MIC (E. coli BW25113): 16 to 32 µg/mL

Sequence: GLRKRLRKFRNKIKEKDKKIGQKIQGLLPKLAPRTDY [L17D]
- Antimicrobial activity: MIC (E. coli ATCC25922 ΔwaaG): ≥64 µg/mL
- Antimicrobial activity: MIC (E. coli ATCC25922): ≥64 µg/mL
- Antimicrobial activity: MIC (E. coli ATCC25922 ΔwaaC): ≥64 µg/mL
- Antimicrobial activity: MIC (E. coli ATCC25922 ΔwaaE): ≥64 µg/mL
- Antimicrobial activity: MIC (E. coli ATCC25922 ΔwaaF): ≥64 µg/mL
- Antimicrobial activity: MIC (S. typhimurium LT2): ≥64 µg/mL
- Antimicrobial activity: MIC (Y. ruckeri 392/2003): ≥64 µg/mL

Sequence: GLRKRLRKFRNKIKEKLKKNGQKIQGLLPKLAPRTDY [I20N]
- Antimicrobial activity: MIC (E. coli ATCC25922 ΔwaaG): 16 µg/mL
- Antimicrobial activity: MIC (E. coli ATCC25922): ≥64 µg/mL
- Antimicrobial activity: MIC (E. coli ATCC25922 ΔwaaC): 16 µg/mL
- Antimicrobial activity: MIC (E. coli ATCC25922 ΔwaaE): 16 µg/mL
- Antimicrobial activity: MIC (E. coli ATCC25922 ΔwaaF): 8 µg/mL
- Antimicrobial activity: MIC (S. typhimurium LT2): 8 to 16 µg/mL
- Antimicrobial activity: MIC (Y. ruckeri 392/2003): ≥64 µg/mL

Sequence: GLRKRLRKFRNKHKEKLKKIGQKIQGLLPKLAPRTDY [I13H]
- Antimicrobial activity: MIC (E. coli ATCC25922 ΔwaaG): 2 µg/mL
- Antimicrobial activity: MIC (E. coli ATCC25922): 4 µg/mL
- Antimicrobial activity: MIC (E. coli ATCC25922 ΔwaaC): 2 µg/mL
- Antimicrobial activity: MIC (E. coli ATCC25922 ΔwaaE): 2 µg/mL
- Antimicrobial activity: MIC (E. coli ATCC25922 ΔwaaF): 2 µg/mL
- Antimicrobial activity: MIC (S. typhimurium LT2): 4 µg/mL
- Antimicrobial activity: MIC (Y. ruckeri 392/2003): 8 to 16 µg/mL
